Source: publication PMC4770093, “The role of kinetic context in apparent biased agonism at GPCRs” (Nature Communications, 2016)
Several values for one entry are separate records, joined by “and”; a condition that tells them apart may be missing. Equal values may be shown once.

Key:
D2LR [1] = target: T1, D2LR (Homo sapiens, UniProt P14416); test: β-Arrestin-2 recruitment (BRET); assay type: cell-based; design: expressed in transfected cells; details: 5 minute timepoint
Protocol: β-Arrestin-2 recruitment. […] To assess β-arrestin-2 recruitment to the D2LR, the cells were transfected with 1 μg Rluc8-tagged D2LR, 4 μg YFP–β-arrestin-2 and 2 μg GRK2. […] The cells were incubated with Coelenterazine (Promega) at a final concentration of 5 μM for 5 min, followed by stimulation with the agonists for an additional 5 min before the BRET readings were captured.

D2LR [2] = target: T1, D2LR; test: GαoB G protein activation (BRET); assay type: cell-based; design: expressed in transfected cells; details: for Emax: relative to the maximal response of ropinirole;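 as to all read-outs here: Flp-In-CHO cells stably expressing D2LR, transiently transfected, agonist-stimulated in HBSS at 37 °C, net BRET read after coelenterazine, vehicle control subtracted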
D2LR [3] = target: T1, D2LR; test: biochemical
Protocol: (§1) The cells were harvested in PBS containing 2 mM EDTA and centrifuged at 300 g for 3 min. The resulting pellet was resuspended in ice-cold assay buffer (20 mM HEPES, 100 mM NaCl, 6 mM MgCl2, 1 mM EGTA and 1 mM EDTA pH 7.4) and the centrifugation step was repeated. The intact cell pellet was then resuspended in assay buffer and homogenized using a Polytron homogenizer. After centrifugation (1,000 g, 10 min), the pellet was discarded and the supernatant was recentrifuged at 30,000 g for 1 h at 4 °C using a Sorvall Evolution RC ultracentrifuge (Thermo Scientific). The resulting pellet was resuspended in assay buffer and stored in 250 μl aliquots at −80 °C. Membrane protein concentration was determined using the method of Bradford.
(§2) All radioligand binding experiments were conducted at 37 °C in a 1-ml reaction volume in assay buffer (20 mM HEPES, 100 mM NaCl, 6 mM MgCl2, 1 mM EGTA and 1 mM EDTA pH 7.4) containing 100 μM GppNHp and 0.1% ascorbic acid. In all cases, nonspecific binding was determined in the presence of 10 μM haloperidol. […] Filter-bound radioactivity was measured by scintillation spectrometry after the addition of 3.5 ml of Ultima Gold (PerkinElmer) using a Tri-Carb 2900TR liquid scintillation counter (PerkinElmer).
where Y denotes the percentage-specific binding, Top and Bottom denote the maximal and minimal asymptotes, respectively, IC50 denotes the X-value when the response is midway between Bottom and Top, and nH denotes the Hill slope factor. IC50 values obtained from the inhibition curves were converted to Ki values using the Cheng and Prusoff equation[61].

D2LR [4] = target: T1, D2LR; test: [3H]spiperone kinetic (dissociation, association, competition association) binding; design: expressed in transfected cells; details: [3H]spiperone tracer
Protocol: as §1, §2
The kinetic parameters of unlabelled agonists were determined using the equations described by Motulsky and Mahan[31]. […]

D2LR [5] = target: T1, D2LR; test: Quantification of biased agonism between pathways (operational model, LogBias); assay type: cell-based; design: expressed in transfected cells; details: 5 minute timepoint; dopamine as reference agonist
From the text: where Top and Bottom represent the maximal and minimal asymptote of the dose–response curve, [A] is the molar concentration of agonist and EC50 is the molar concentration of agonist required to give a response half way between bottom and top. Dose–response data were fitted to the following form of the operational model of agonism[12] to allow the quantification of biased agonism
where Em is the maximal possible response of the system, Basal is the basal level of response, KA represents the equilibrium dissociation constant of the agonist (A) and τ is an index of the signalling efficacy of the agonist that is defined as RT/KE, where RT is the total number of receptors and KE is the coupling efficiency of each agonist-occupied receptor, and n is the slope of the transducer function that links occupancy to response. The analysis assumes that the transduction machinery used for a given cellular pathway are the same for all agonists, such that the Em and transducer slope (n) are shared between agonists. Data for all compounds for each pathway were fit globally, to determine values of KA and τ. Biased agonism was quantified as previously described. […] The relative bias can then be calculated for each agonist at the two different signalling pathways by subtracting the Δlog(τ/KA) of one pathway from the other to give a ΔΔlog(τ/KA) value, which is a measure of bias. […] All affinity (pKi or pKA), potency (pEC50) and transduction ratio (log(τ/KA)) parameters were estimated as logarithms. When fold changes in bias are described, this was calculated by converting values of ΔΔlog(τ/KA) to the corresponding antilog value. […] Thus, as the application of t-tests and analyses of variance assume Gaussian distribution, estimating the parameters as logarithms allows valid statistical comparison. All results are expressed as the mean±s.e.m. As such, we performed a Brown–Forsythe test (Graphpad prism 6) to assure ourselves of equal variance when such parameters are compared.

D2LR [6] = target: T1, D2LR; test: Inhibition of forskolin-induced cAMP production (BRET CAMYEL biosensor); details: for EC50: pEC50 cAMP; for Emax: relative to the maximal response of ropinirole; for Inhibition of cAMP production measured using a CAMYEL BRET biosensor, Net BRET: single experiments n = 1, 2, 3
[7] = 5 minute timepoint, Flp-In-CHO-D2LR
[8] = 5 minute timepoint, dopamine as reference agonist

T1 sequence (P14416 whole entry): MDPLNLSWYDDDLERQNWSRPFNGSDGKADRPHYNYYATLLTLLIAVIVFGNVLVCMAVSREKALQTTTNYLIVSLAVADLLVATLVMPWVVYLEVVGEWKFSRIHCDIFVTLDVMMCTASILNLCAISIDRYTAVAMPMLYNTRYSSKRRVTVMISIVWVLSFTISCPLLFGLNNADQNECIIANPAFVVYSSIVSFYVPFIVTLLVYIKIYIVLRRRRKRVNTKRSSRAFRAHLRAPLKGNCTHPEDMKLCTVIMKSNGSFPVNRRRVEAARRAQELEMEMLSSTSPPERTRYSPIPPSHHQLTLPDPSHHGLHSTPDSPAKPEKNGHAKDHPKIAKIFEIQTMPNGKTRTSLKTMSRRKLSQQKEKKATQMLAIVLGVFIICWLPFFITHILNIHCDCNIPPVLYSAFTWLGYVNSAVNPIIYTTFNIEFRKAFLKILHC

Compound: O=c1[nH]c2cccc(N3CCN(Cc4cccc(-c5ccccc5)c4)CC3)c2o1 [Bifeprunox, bifeprunox]
- Log(τ/KA) β-arrestin2 (D2LR [1]; ND = no agonist activity detected): 5.75 ± 0.16
- ΔLog(τ/KA) β-arrestin2 (D2LR [1]; dopamine as reference agonist): -0.58 ± 0.21
- EC50 (D2LR [2]; 2 min): 52.5 nM
- Emax (D2LR [2]; 2 min): 94 ± 3.8%
- EC50 (D2LR [2]; 5 min): 26.9 nM
- Emax (D2LR [2]; 5 min): 80%
- Log(τ/KA) GαoB activation (D2LR [2]; [7]): 7.50 ± 0.10
- ΔLog(τ/KA) GαoB activation (D2LR [2]; [8]): 0.26 ± 0.13
- EC50 (D2LR [2]; 10 min): 12.9 nM
- Emax (D2LR [2]; 10 min): 77%
- EC50 (D2LR [2]; 15 min): 7.59 nM
- Emax (D2LR [2]; 15 min): 79%
- EC50 (D2LR [2]; 30 min): 4.07 nM
- Emax (D2LR [2]; 30 min): 87 ± 2.5%
- EC50 (D2LR [2]; 45 min): 3.02 nM
- Emax (D2LR [2]; 45 min): 88 ± 2.4%
- EC50 (D2LR [2]; 60 min): 3.24 nM
- EC50 (D2LR [2]; 75 min): 2.19 nM
- EC50 (D2LR [2]; 90 min): 2.14 nM
- Emax (D2LR [2]; 90 min): 90 ± 3.2%
- Ki (D2LR [3]): 0.0437 nM
- koff (D2LR [4]; Flp-In-CHO-D2LR membranes, 100 μM GppNHp, 37 °C): 0.000167 s⁻¹
- Kd (D2LR [4]; read-out: pKd (affinity determined from kinetic parameters) (converted)): 0.1 nM
- LogBias CI – pERK1/2 (D2LR [5]): 0.99 ± 0.14
- LogBias Gαi1 – CI (D2LR [5]): 1.68 ± 0.16
- LogBias Gαi1 – GαoB (D2LR [5]): 1.17 ± 0.19
- LogBias Gαi1 – cAMP (D2LR [5]): 1.61 ± 0.16
- LogBias Gαi1 – pERK1/2 (D2LR [5]): 2.67 ± 0.18
- LogBias GαoB – CI (D2LR [5]): 0.51 ± 0.15
- LogBias GαoB – cAMP (D2LR [5]): 0.43 ± 0.14
- LogBias GαoB – pERK1/2 (D2LR [5]): 1.50 ± 0.17
- LogBias cAMP – CI (D2LR [5]): 0.08 ± 0.11
- LogBias cAMP – pERK1/2 (D2LR [5]): 1.06 ± 0.13
- LogBias β-arr2 – CI (D2LR [5]): -0.33 ± 0.22
- LogBias β-arr2 – Gαi1 (D2LR [5]): -2.01 ± 0.25
- LogBias β-arr2 – GαoB (D2LR [5]): -0.84 ± 0.24
- LogBias β-arr2 – cAMP (D2LR [5]): -0.41 ± 0.22
- LogBias β-arr2 – pERK1/2 (D2LR [5]): 0.66 ± 0.24
- Log(τ/KA) cAMP (D2LR [6]; [7]): 7.88 ± 0.05
- ΔLog(τ/KA) cAMP (D2LR [6]; [8]): -0.18 ± 0.07
- EC50 (D2LR [6]; 2 min): 25.1 nM
- EC50 (D2LR [6]; 5 min): 12.3 nM
- EC50 (D2LR [6]; 10 min): 7.41 nM
- EC50 (D2LR [6]; 15 min): 5.37 nM
- EC50 (D2LR [6]; 30 min): 2.4 nM
- EC50 (D2LR [6]; 45 min): 2.75 nM
- EC50 (D2LR [6]; 60 min): 3.09 nM
- EC50 (D2LR [6]; 75 min): 1.58 nM
- EC50 (D2LR [6]; 90 min): 2.04 nM
- Emax (D2LR [6]; read-out: Emax cAMP, 2 min): 89 ± 2%
- Emax (D2LR [6]; read-out: Emax cAMP, 5 min): 92 ± 2%
- Emax (D2LR [6]; read-out: Emax cAMP, 10 min): 91 ± 2%
- Emax (D2LR [6]; read-out: Emax cAMP, 15 min): 89 ± 2.4%
- Emax (D2LR [6]; read-out: Emax cAMP, 30 min): 89 ± 1.7%
- Emax (D2LR [6]; read-out: Emax cAMP, 45 min): 88 ± 2%
- Emax (D2LR [6]; read-out: Emax cAMP, 60 min): 81 ± 2%
- Emax (D2LR [6]; read-out: Emax cAMP, 75 min): 90 ± 2.5%
- Emax (D2LR [6]; read-out: Emax cAMP, 90 min): 88 ± 2.5%
- Inhibition of cAMP production measured using a CAMYEL BRET biosensor, Net BRET (D2LR [6]; time 2.21667 mins): 0.08914 and 0.1211 and 0.09318
- Inhibition of cAMP production measured using a CAMYEL BRET biosensor, Net BRET (D2LR [6]; time 2.58333 mins): 0.103 and 0.1317 and 0.09421
- Inhibition of cAMP production measured using a CAMYEL BRET biosensor, Net BRET (D2LR [6]; time 2.95 mins): 0.1113 and 0.1351 and 0.0964
- Inhibition of cAMP production measured using a CAMYEL BRET biosensor, Net BRET (D2LR [6]; time 3.31667 mins): 0.1109 and 0.1416 and 0.1166
- Inhibition of cAMP production measured using a CAMYEL BRET biosensor, Net BRET (D2LR [6]; time 3.68333 mins): 0.1141 and 0.143 and 0.1124
- Inhibition of cAMP production measured using a CAMYEL BRET biosensor, Net BRET (D2LR [6]; time 4.05 mins): 0.1231 and 0.1563 and 0.1162
- Inhibition of cAMP production measured using a CAMYEL BRET biosensor, Net BRET (D2LR [6]; time 4.41667 mins): 0.1255 and 0.1611 and 0.116
- Inhibition of cAMP production measured using a CAMYEL BRET biosensor, Net BRET (D2LR [6]; time 4.78333 mins): 0.1306 and 0.1617 and 0.1229
- Inhibition of cAMP production measured using a CAMYEL BRET biosensor, Net BRET (D2LR [6]; time 5.15 mins): 0.1492 and 0.1604 and 0.1179
- Inhibition of cAMP production measured using a CAMYEL BRET biosensor, Net BRET (D2LR [6]; time 5.51667 mins): 0.135 and 0.1611 and 0.1193
- Inhibition of cAMP production measured using a CAMYEL BRET biosensor, Net BRET (D2LR [6]; time 5.88333 mins): 0.1401 and 0.1595 and 0.123
- Inhibition of cAMP production measured using a CAMYEL BRET biosensor, Net BRET (D2LR [6]; time 6.25 mins): 0.1298 and 0.1539 and 0.1222
- Inhibition of cAMP production measured using a CAMYEL BRET biosensor, Net BRET (D2LR [6]; time 6.61667 mins): 0.1365 and 0.1594 and 0.1215
- Inhibition of cAMP production measured using a CAMYEL BRET biosensor, Net BRET (D2LR [6]; time 6.98333 mins): 0.1365 and 0.1586 and 0.1225
- Inhibition of cAMP production measured using a CAMYEL BRET biosensor, Net BRET (D2LR [6]; time 7.35 mins): 0.1382 and 0.1575 and 0.1195
- Inhibition of cAMP production measured using a CAMYEL BRET biosensor, Net BRET (D2LR [6]; time 7.71667 mins): 0.1358 and 0.1585 and 0.1189
- Inhibition of cAMP production measured using a CAMYEL BRET biosensor, Net BRET (D2LR [6]; time 8.08333 mins): 0.1415 and 0.1636 and 0.1191
- Inhibition of cAMP production measured using a CAMYEL BRET biosensor, Net BRET (D2LR [6]; time 8.45 mins): 0.1387 and 0.16 and 0.1143
- Inhibition of cAMP production measured using a CAMYEL BRET biosensor, Net BRET (D2LR [6]; time 8.81667 mins): 0.1483 and 0.1622 and 0.1213
- Inhibition of cAMP production measured using a CAMYEL BRET biosensor, Net BRET (D2LR [6]; time 9.18333 mins): 0.1415 and 0.1645 and 0.1136
- Inhibition of cAMP production measured using a CAMYEL BRET biosensor, Net BRET (D2LR [6]; time 9.55 mins): 0.1361 and 0.1571 and 0.122
- Inhibition of cAMP production measured using a CAMYEL BRET biosensor, Net BRET (D2LR [6]; time 9.91667 mins): 0.1368 and 0.1537 and 0.1212
- Inhibition of cAMP production measured using a CAMYEL BRET biosensor, Net BRET (D2LR [6]; time 10.2833 mins): 0.1433 and 0.1558 and 0.1185
- Inhibition of cAMP production measured using a CAMYEL BRET biosensor, Net BRET (D2LR [6]; time 10.65 mins): 0.1418 and 0.1582 and 0.1222
- Inhibition of cAMP production measured using a CAMYEL BRET biosensor, Net BRET (D2LR [6]; time 11.0167 mins): 0.1356 and 0.1444 and 0.1266
- Inhibition of cAMP production measured using a CAMYEL BRET biosensor, Net BRET (D2LR [6]; time 11.3833 mins): 0.1394 and 0.145 and 0.1251
- Inhibition of cAMP production measured using a CAMYEL BRET biosensor, Net BRET (D2LR [6]; time 11.75 mins): 0.1471 and 0.1529 and 0.1151
- Inhibition of cAMP production measured using a CAMYEL BRET biosensor, Net BRET (D2LR [6]; time 12.1167 mins): 0.148 and 0.1471 and 0.1222
- Inhibition of cAMP production measured using a CAMYEL BRET biosensor, Net BRET (D2LR [6]; time 12.4833 mins): 0.1456 and 0.1415 and 0.132
- Inhibition of cAMP production measured using a CAMYEL BRET biosensor, Net BRET (D2LR [6]; time 12.85 mins): 0.1323 and 0.1432 and 0.12
- Inhibition of cAMP production measured using a CAMYEL BRET biosensor, Net BRET (D2LR [6]; time 13.2167 mins): 0.14 and 0.1381 and 0.1276
- Inhibition of cAMP production measured using a CAMYEL BRET biosensor, Net BRET (D2LR [6]; time 13.5833 mins): 0.1427 and 0.1424 and 0.1286
- Inhibition of cAMP production measured using a CAMYEL BRET biosensor, Net BRET (D2LR [6]; time 13.95 mins): 0.1347 and 0.1377 and 0.1287
- Inhibition of cAMP production measured using a CAMYEL BRET biosensor, Net BRET (D2LR [6]; time 14.3167 mins): 0.1428
